{
  "source": "patent US9561289B2",
  "about": "“Peptides for inhibiting tumor growth” (OSPEDALE SAN RAFFAELE SRL, priority 2012, dated 2017)",
  "key": {"αvβ5": {"molecular_target": "T1, αvβ5 (Homo sapiens, UniProt P06756+P18084)", "T1 construct": "purchased Immunological Sciences (Rome, Italy)", "experiment": "Competitive integrin binding assay (isoDGR/STV-HRP) on αvβ5-coated plates", "conditions": "number in parenthesis", "protocol": "(§1) A conjugate consisting of biotinylated acetyl-Ciso[…] (SEQ ID NO:36) peptide complexed with streptavidin-peroxidase conjugate (isoDGR/STV-HRP) was first prepared as described previously. […] Each mixture was then added to microtiter plates coated with integrins (αvβ3, αvβ5, αvβ6, […], or α5β1) and incubated for 2 h at room temperature. After washing, each well was incubated with 70 μl of chromogenic solution (o-phenylenediamine dihydrochloride) for 20 min, at room temperature. The chromogenic reaction was stopped by adding an equal volume of 1 N sulfuric acid. The absorbance at 490 nm was then measured using a microtiter plate reader.\n(§2) The binding affinity and selectivity of each peptide for different integrins were then analyzed by competitive binding assay, using αvβ3-, αvβ5-, αvβ6-, αvβ8- and α5β1-coated plates and isoDGR/STV-HRP, an ac-isoDGR-2C/peroxidase complex, as competitor."}, "αvβ3": {"molecular_target": "T2, αvβ3 (Homo sapiens, UniProt P05106+P06756)", "T2 construct": "purchased Immunological Sciences (Rome, Italy)", "experiment": "Competitive integrin binding assay (isoDGR/STV-HRP) on αvβ3-coated plates", "conditions": "number in parenthesis", "protocol": "as §1, §2"}, "αvβ6": {"molecular_target": "T3, αvβ6 (Homo sapiens, UniProt P06756+P18564)", "T3 construct": "purchased R&D System (Minneapolis, Minn.)", "experiment": "Competitive integrin binding assay (isoDGR/STV-HRP) on αvβ6-coated plates", "conditions": "for ratio of integrin Ki/αvβ3 Ki (αvβ6): number in parenthesis", "protocol": "as §1, §2"}, "α5β1": {"molecular_target": "T4, α5β1 (Homo sapiens, UniProt P05556+P08648)", "T4 construct": "purchased Immunological Sciences (Rome, Italy)", "experiment": "Competitive integrin binding assay (isoDGR/STV-HRP) on α5β1-coated plates", "conditions": "number in parenthesis", "protocol": "as §1, §2"}, "[1]": {"tested_on": "EA.hy926 endothelial cells", "experiment": "Endothelial cell adhesion to vitronectin-coated plates", "type": "cell-based, human", "conditions": "EA.hy926, substance added to supernatant", "protocol": "Endothelial cell (EA.hy926) adhesion to microtiter plates coated with human vitronectin was carried out as described ([25]). IsoDGR#1 and isoDGR#3 were added to the supernatant during cell adhesion. […] Mean±S.E (n=3).\nCell adhesion was quantified by spectrophotometric measurement (A570 nm)."}, "αvβ8": {"molecular_target": "T5, αvβ8 (Homo sapiens, UniProt P06756+P26012)", "T5 construct": "purchased R&D System (Minneapolis, Minn.)", "experiment": "Competitive integrin binding assay (isoDGR/STV-HRP) on αvβ8-coated plates", "conditions": "for ratio of integrin Ki/αvβ3 Ki (αvβ8): number in parenthesis", "protocol": "as §1, §2"}},
  "note": "Marks after values point to notes of the source that are not given here. Where a SMILES comes first, the peptide text is derived from it. Bridges are numbered along the chain shown (N, C = ends). [ ]: non-standard residue; d: D form. The star is where a group is joined. X1 = NC(=O)C1CCC(CN2C(=O)CC(*)C2=O)CC1; X2 = O=C(O)C1CCC(CN2C(=O)CC(*)C2=O)CC1; dPhg = N[C@@H](C(=O)O)c1ccccc1",
  "data": [
    {"compound": "N=C(N)NCCC[C@@H]1NC(=O)CNC(=O)C[C@@H](C(=O)O)NC(=O)CNC(=O)[C@H](CS)NC(=O)CNC1=O", "note": "[isoDGR#1, c(CGisoDGRG)] (GRGCGD-OH; lactam N-6)", "values": [
      {"measurement": "ratio of integrin Ki/αvβ3 Ki (αvβ5)", "setting": "αvβ5", "value": "(2)"},
      {"measurement": "ratio of integrin Ki/αvβ3 Ki (αvβ3)", "setting": "αvβ3", "value": "(1)^c"},
      {"measurement": "ratio of integrin Ki/αvβ3 Ki (αvβ6)", "setting": "αvβ6", "value": "(14)"},
      {"measurement": "ratio of integrin Ki/αvβ3 Ki (α5β1)", "setting": "α5β1", "value": "(3)"},
      {"measurement": "inhibition of endothelial cell adhesion to vitronectin", "setting": "[1]", "value": "could efficiently inhibit endothelial cell adhesion"}
    ]},
    {"compound": "N=C(N)NCCC[C@@H]1NC(=O)CNC(=O)C[C@@H](C(=O)O)NC(=O)CNC(=O)[C@H](CSC2CC(=O)N(CC3CCC(C(N)=O)CC3)C2=O)NC(=O)CNC1=O", "note": "(some centres unmarked) [isoDGR#1-P1] (GRGC(X1)GD-OH; lactam N-6)", "values": [
      {"measurement": "ratio of integrin Ki/αvβ3 Ki (αvβ8)", "setting": "αvβ8", "value": "(160)"},
      {"measurement": "ratio of integrin Ki/αvβ3 Ki (αvβ5)", "setting": "αvβ5", "value": "(1)^"},
      {"measurement": "ratio of integrin Ki/αvβ3 Ki (αvβ3)", "setting": "αvβ3", "value": "(1)"},
      {"measurement": "ratio of integrin Ki/αvβ3 Ki (αvβ6)", "setting": "αvβ6", "value": "(17)"},
      {"measurement": "ratio of integrin Ki/αvβ3 Ki (α5β1)", "setting": "α5β1", "value": "(8.6)"}
    ]},
    {"compound": "N=C(N)NCCC[C@@H]1NC(=O)CNC(=O)C[C@@H](C(=O)O)NC(=O)CNC(=O)[C@H](CSC2CC(=O)N(CC3CCC(C(=O)O)CC3)C2=O)NC(=O)CNC1=O", "note": "(some centres unmarked) [isoDGR#1-P2] (GRGC(X2)GD-OH; lactam N-6)", "values": [
      {"measurement": "ratio of integrin Ki/αvβ3 Ki (αvβ8)", "setting": "αvβ8", "value": "(318)"},
      {"measurement": "ratio of integrin Ki/αvβ3 Ki (αvβ5)", "setting": "αvβ5", "value": "(1.6)"},
      {"measurement": "ratio of integrin Ki/αvβ3 Ki (αvβ3)", "setting": "αvβ3", "value": "(1)"},
      {"measurement": "ratio of integrin Ki/αvβ3 Ki (αvβ6)", "setting": "αvβ6", "value": "(80)"},
      {"measurement": "ratio of integrin Ki/αvβ3 Ki (α5β1)", "setting": "α5β1", "value": "(9.6)"}
    ]},
    {"compound": "N=C(N)NCCC[C@@H]1NC(=O)CNC(=O)C[C@@H](C(=O)O)NC(=O)[C@H](CS)NC(=O)CNC1=O", "note": "[isoDGR#2, c(CisoDGRG)] (GRGCD-OH; lactam N-5)", "values": [
      {"measurement": "ratio of integrin Ki/αvβ3 Ki (αvβ8)", "setting": "αvβ8", "value": "(2.2)"},
      {"measurement": "ratio of integrin Ki/αvβ3 Ki (αvβ5)", "setting": "αvβ5", "value": "(1)"},
      {"measurement": "ratio of integrin Ki/αvβ3 Ki (αvβ3)", "setting": "αvβ3", "value": "(1)"},
      {"measurement": "ratio of integrin Ki/αvβ3 Ki (αvβ6)", "setting": "αvβ6", "value": "(1.9)"},
      {"measurement": "ratio of integrin Ki/αvβ3 Ki (α5β1)", "setting": "α5β1", "value": "(0.5)"}
    ]},
    {"compound": "N=C(N)NCCC[C@@H]1NC(=O)CNC(=O)C[C@@H](C(=O)O)NC(=O)[C@H](CS)NC(=O)CNC(=O)CNC1=O", "note": "[isoDGR#3, c(CisoDGRGG)] (GRGGCD-OH; lactam N-6)", "values": [
      {"measurement": "ratio of integrin Ki/αvβ3 Ki (αvβ8)", "setting": "αvβ8", "value": "(1.2)"},
      {"measurement": "ratio of integrin Ki/αvβ3 Ki (αvβ5)", "setting": "αvβ5", "value": "(1)"},
      {"measurement": "ratio of integrin Ki/αvβ3 Ki (αvβ3)", "setting": "αvβ3", "value": "(1)"},
      {"measurement": "ratio of integrin Ki/αvβ3 Ki (αvβ6)", "setting": "αvβ6", "value": "(1.3)"},
      {"measurement": "ratio of integrin Ki/αvβ3 Ki (α5β1)", "setting": "α5β1", "value": "(0.5)"},
      {"measurement": "inhibition of endothelial cell adhesion to vitronectin", "setting": "[1]", "value": "could efficiently inhibit endothelial cell adhesion"}
    ]},
    {"compound": "N=C(N)NCCC[C@@H]1NC(=O)CNC(=O)C[C@@H](C(=O)O)NC(=O)[C@H](CSC2CC(=O)N(CC3CCC(C(=O)O)CC3)C2=O)NC(=O)CNC(=O)CNC1=O", "note": "(stereo partly drawn) [isoDGR#3-P2] (GRGGC(X2)D-OH; lactam N-6)", "values": [
      {"measurement": "Ki", "setting": "αvβ8; mean ± SE", "value": 0.43, "unit": "µM"},
      {"measurement": "ratio of integrin Ki/αvβ3 Ki (αvβ8)", "setting": "αvβ8", "value": "(24)"},
      {"measurement": "ratio of integrin Ki/αvβ3 Ki (αvβ3)", "setting": "αvβ3", "value": "(1)"},
      {"measurement": "Ki", "setting": "αvβ6; mean ± SE", "value": 0.468, "unit": "µM"},
      {"measurement": "ratio of integrin Ki/αvβ3 Ki (αvβ6)", "setting": "αvβ6", "value": "(26)"}
    ]},
    {"compound": "N=C(N)NCCC[C@@H]1NC(=O)CNC(=O)C[C@@H](C(=O)O)NC(=O)CNC(=O)[C@H](CS)NC(=O)[C@@H](c2ccccc2)NC1=O", "note": "[isoDGR#5, c(CGisoDGRphg)] (GR[dPhg]CGD-OH; lactam N-6)", "values": [
      {"measurement": "ratio of integrin Ki/αvβ3 Ki (αvβ8)", "setting": "αvβ8", "value": "(42)"},
      {"measurement": "ratio of integrin Ki/αvβ3 Ki (αvβ5)", "setting": "αvβ5", "value": "(1.30)"},
      {"measurement": "ratio of integrin Ki/αvβ3 Ki (αvβ3)", "setting": "αvβ3", "value": "(1)"},
      {"measurement": "ratio of integrin Ki/αvβ3 Ki (αvβ6)", "setting": "αvβ6", "value": "(3.7)"},
      {"measurement": "ratio of integrin Ki/αvβ3 Ki (α5β1)", "setting": "α5β1", "value": "(3.26)"}
    ]},
    {"compound": "N=C(N)NCCC[C@@H]1NC(=O)CNC(=O)C[C@@H](C(=O)O)NC(=O)[C@H](CS)NC(=O)[C@@H](c2ccccc2)NC(=O)CNC1=O", "note": "[isoDGR#7, c(CisoDGRGphg)] (GRG[dPhg]CD-OH; lactam N-6)", "values": [
      {"measurement": "ratio of integrin Ki/αvβ3 Ki (αvβ8)", "setting": "αvβ8", "value": "(0.4)"},
      {"measurement": "ratio of integrin Ki/αvβ3 Ki (αvβ5)", "setting": "αvβ5", "value": "(0.6)"},
      {"measurement": "ratio of integrin Ki/αvβ3 Ki (αvβ3)", "setting": "αvβ3", "value": "(1)"},
      {"measurement": "ratio of integrin Ki/αvβ3 Ki (αvβ6)", "setting": "αvβ6", "value": "(0.03)"},
      {"measurement": "ratio of integrin Ki/αvβ3 Ki (α5β1)", "setting": "α5β1", "value": "(0.04)"}
    ]}
  ]
}
